Reference: patent publication US20260209234A1, “SUBSTITUTED DIHYDROPYRROLO[3,4-D]PYRIMIDINE COMPOUNDS AND THEIR USE IN TREATING MEDICAL CONDITIONS” (Karuna Therapeutics, Inc., priority 2022, published 2026)
pEC50: −log10 of the molar value.

Columns and labels:
hM4 receptors = target: T1, hM4 receptors (Homo sapiens, UniProt P08173); assay: Human M4 PAM pERK assay; format: cell-based; details: CHO cells expressing hM4; EC20 of acetylcholine (10 nM final); TR-FRET
T1 construct: expressed in transfected cells; host or cells: CHO cells
T1 sequence (P08173 1-479): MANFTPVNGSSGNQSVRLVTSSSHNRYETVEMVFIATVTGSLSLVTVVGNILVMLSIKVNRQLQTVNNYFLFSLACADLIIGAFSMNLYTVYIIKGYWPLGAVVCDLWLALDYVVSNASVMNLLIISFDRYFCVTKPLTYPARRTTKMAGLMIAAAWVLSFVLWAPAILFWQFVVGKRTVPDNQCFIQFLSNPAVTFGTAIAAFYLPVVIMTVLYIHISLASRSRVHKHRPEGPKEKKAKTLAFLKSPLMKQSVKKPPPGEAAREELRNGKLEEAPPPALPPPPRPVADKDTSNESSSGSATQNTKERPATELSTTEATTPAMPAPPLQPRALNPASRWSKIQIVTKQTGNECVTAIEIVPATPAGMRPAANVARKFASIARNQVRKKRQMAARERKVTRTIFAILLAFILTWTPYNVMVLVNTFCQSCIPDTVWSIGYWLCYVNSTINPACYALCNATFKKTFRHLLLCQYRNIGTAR

rM4 receptors = target: T2, rM4 receptors (Rattus norvegicus, UniProt P08485); assay: Rat M4 PAM pERK assay; format: cell-based; details: CHO cells expressing rM4; EC20 of acetylcholine (10 nM final); TR-FRET
T2 construct: expressed in transfected cells; host or cells: CHO cells
T2 sequence (P08485 1-478): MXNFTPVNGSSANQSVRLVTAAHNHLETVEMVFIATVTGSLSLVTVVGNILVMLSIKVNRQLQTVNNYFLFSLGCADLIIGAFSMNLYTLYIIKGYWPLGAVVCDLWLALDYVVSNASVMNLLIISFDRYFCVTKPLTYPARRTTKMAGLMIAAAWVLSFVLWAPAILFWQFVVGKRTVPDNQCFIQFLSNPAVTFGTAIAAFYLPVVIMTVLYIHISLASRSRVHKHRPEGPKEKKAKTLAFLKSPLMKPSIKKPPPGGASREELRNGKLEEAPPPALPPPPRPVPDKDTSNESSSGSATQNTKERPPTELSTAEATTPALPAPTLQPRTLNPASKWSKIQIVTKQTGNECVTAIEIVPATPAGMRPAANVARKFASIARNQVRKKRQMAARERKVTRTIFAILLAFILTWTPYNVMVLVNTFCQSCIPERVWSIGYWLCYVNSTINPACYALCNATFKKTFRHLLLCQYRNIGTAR

human M4 receptor = target: T3, human M4 receptor (Homo sapiens, UniProt P08173); assay: M4 GTPγS PAM assay; format: biochemical; details: membranes of CHO-K1 cells stably expressing human M4; EC20 acetylcholine 40 nM; 35S-GTP
T3 construct: expressed in transfected cells
T3 sequence (P08173 1-479): T1 sequence (P08173 1-479)
Protocol: The M4 GTPγS PAM method was used. Membranes were prepared for GTPgS binding assays from CHO-K1 cells stably expressing human M4 receptor. Briefly, cells were grown in 5-layer cell culture flasks. Cells were washed with 50 mL of PBS and then dissociated with 0.05% trypsin. Dissociated cells were then collected by centrifugation at 650×g for 8 minutes at 4° C. Pellets were washed again in PBS by centrifugation and resuspended in 30 mL of 20 mM HEPES, 10 mM EDTA, pH 7.4. After sitting on ice for 30 min, membranes were collected by centrifugation at 50000×g for 15′ at 4° C., resuspended in 30 mL of 20 mM HEPES, 0.1 mM EDTA, pH 7.4 and collected again by centrifugation. Pellets were then washed twice by centrifugation in 30 mL of 20 mM HEPES, pH 7.4, and stored at −80° C. until the day of the assay. On the day of the assay, pellets were thawed on ice and resuspended in 1 mL of 20 mM HEPES, pH 7.4, 10 mM MgCl2, 100 mM NaCl using dounce homogenization. Membrane protein concentration is determined by BCA protein assay (Promega, Madison, WI) according to Promega guidelines.
On the day of the assay, serial dilutions of test PAM compounds were brought up in assay buffer (20 mM HEPES, 10 mM MgCl2, 100 mM NaCl) at 4× final assay concentration. […] of membrane homogenates (containing […] of membrane protein) were prepared in assay buffer supplemented with GDP at 4× final assay concentration (final assay concentration of GDP is 5 μM for M2 and 0.1 μM for M4) and dispensed into 96 well polypropylene, U-bottom Greiner plates. […] of vehicle or test PAM compound at 4× of final assay concentration diluted in the assay buffer were added to membrane and plates are incubated for 10-15 minutes at room temperature with gentle shaking. Then, […] of EC20 acetylcholine in assay buffer at 4× final assay concentration was added to assay plates (EC20 final assay concentrations was 40 nM for human M4).
Plates were then incubated, with shaking, for an additional 10-15 minutes. […] of 0.4 nM 35S-GTP (Perkin Elmer, Waltham, MA) in assay buffer was added to assay mixtures. The binding reaction is left on the shaker for 1 hour at room temperature. Membranes in assay reactions were then transferred to GF/C filter plates (Unifilter, Perkin Elmer) and washed three times using a FilterMate Harvester (Perkin Elmer) with cold assay buffer containing no GDP. Filter plates were then dried at 40° C. overnight followed by the addition of […] of Beta Plate Scintillation liquid. Plates are top and bottom sealed before being read on TopCount scintillation counter (Perkin Elmer, Waltham, MA).

Question: How did the pEC50 (hM4 receptors) turn out when `COc1nc(C#N)nc2c1C(C)N(C(=O)CC1CN(c3ccnc(OC(F)F)c3)C1)C2` (single isomer, unassigned) [Compound I-28, 6-(2-(1-(2-(Difluoromethoxy)pyridin-4-yl)azetidin-3-yl)acetyl)-4-methoxy-5-methyl-6,7-dihydro-5H-pyrrolo[3,4-d]pyrimidine-2-carbonitrile] was run?
Answer: ≥ 7.00

Question: And the pEC50 (rM4 receptors)?
Answer: 6.30 to 7.00

Question: What about the pEC50 (human M4 receptor) of the same compound?
Answer: ≥ 7.00

Question: How did the pEC50 (hM4 receptors) turn out when `COc1nc(C#N)nc2c1C(C)N(C(=O)CC1CN(c3ccncc3F)C1)C2` (single isomer, unassigned) [Compound I-29, 6-(2-(1-(3-Fluoropyridin-4-yl)azetidin-3-yl)acetyl)-4-methoxy-5-methyl-6,7-dihydro-5H-pyrrolo[3,4-d]pyrimidine-2-carbonitrile] was run?
Answer: 6.30 to 7.00

Question: What about the pEC50 (rM4 receptors) of the same compound?
Answer: 5.70 to 6.30

Question: What about the pEC50 (human M4 receptor) of the same compound?
Answer: 6.30 to 7.00

Question: Which results are given for `COc1nc(C#N)nc2c1C(C)N(C(=O)CC1CN(c3ccnc(C(C)(C)O)c3)C1)C2` (single isomer, unassigned) [Compound I-30, 6-(2-(1-(2-(2-Hydroxypropan-2-yl)pyridin-4-yl)azetidin-3-yl)acetyl)-4-methoxy-5-methyl-6,7-dihydro-5H-pyrrolo[3,4-d]pyrimidine-2-carbonitrile]?
Answer: pEC50 (hM4 receptors): ≥ 7.00; pEC50 (rM4 receptors): 6.30 to 7.00; pEC50 (human M4 receptor): 6.30 to 7.00

Question: How did the pEC50 (hM4 receptors) turn out when `COc1nc(C#N)nc2c1C(C)N(C(=O)CC1CN(c3ccc(C4CC4)nc3)C1)C2` (single isomer, unassigned) [Compound I-32, 6-(2-(1-(6-Cyclopropylpyridin-3-yl)azetidin-3-yl)acetyl)-4-methoxy-5-methyl-6,7-dihydro-5H-pyrrolo[3,4-d]pyrimidine-2-carbonitrile] was run?
Answer: ≤ 5.70

Question: And the pEC50 (rM4 receptors)?
Answer: ≤ 5.70

Question: What about the pEC50 (human M4 receptor) of the same compound?
Answer: ≤ 5.70

Question: `COc1nc(C#N)nc2c1C(C)N(C(=O)CC1CN(c3ccc(C4CC4)nc3)C1)C2` (single isomer, unassigned) [Compound I-33, 6-(2-(1-(6-Cyclopropylpyridin-3-yl)azetidin-3-yl)acetyl)-4-methoxy-5-methyl-6,7-dihydro-5H-pyrrolo[3,4-d]pyrimidine-2-carbonitrile] was tested. Which pEC50 (hM4 receptors) did it give?
Answer: ≥ 7.00

Question: What about the pEC50 (rM4 receptors) of the same compound?
Answer: 6.30 to 7.00

Question: And the pEC50 (human M4 receptor)?
Answer: 6.30 to 7.00

Question: With `COc1nc(C#N)nc2c1CN(C(=O)CC1CN(c3ccnc(C(F)(F)F)c3)C1)C2C` (single isomer, unassigned) [Compound I-34, 4-Methoxy-7-methyl-6-(2-(1-(2-(trifluoromethyl)pyridin-4-yl)azetidin-3-yl)acetyl)-6,7-dihydro-5H-pyrrolo[3,4-d]pyrimidine-2-carbonitrile] as the compound, how does the pEC50 (hM4 receptors) read?
Answer: 5.70 to 6.30

Question: And the pEC50 (rM4 receptors)?
Answer: ≤ 5.70

Question: What about the pEC50 (human M4 receptor) of the same compound?
Answer: 5.70 to 6.30

Question: Which results are given for `COc1nc(C#N)nc2c1CN(C(=O)CC1CN(c3ccnc(C(F)(F)F)c3)C1)C2C` (single isomer, unassigned) [Compound I-35, 4-Methoxy-7-methyl-6-(2-(1-(2-(trifluoromethyl)pyridin-4-yl)azetidin-3-yl)acetyl)-6,7-dihydro-5H-pyrrolo[3,4-d]pyrimidine-2-carbonitrile]?
Answer: pEC50 (hM4 receptors): 6.30 to 7.00; pEC50 (rM4 receptors): 5.70 to 6.30; pEC50 (human M4 receptor): ≤ 5.70

Question: What does the source list for `COc1nc(C#N)nc2c1C(C)N(C(=O)CC1CN(c3ccnc(C(F)(F)F)c3)C1C)C2` (single isomer, unassigned) [Compound I-36, 4-Methoxy-5-methyl-6-(2-(2-methyl-1-(2-(trifluoromethyl)pyridin-4-yl)azetidin-3-yl)acetyl)-6,7-dihydro-5H-pyrrolo[3,4-d]pyrimidine-2-carbonitrile]?
Answer: pEC50 (hM4 receptors): ≥ 7.00; pEC50 (rM4 receptors): ≥ 7.00; pEC50 (human M4 receptor): ≥ 7.00

Question: `COc1nc(C#N)nc2c1C(C)N(C(=O)CC1CN(c3ccnc(C(F)(F)F)c3)C1C)C2` (single isomer, unassigned) [Compound I-37, 4-Methoxy-5-methyl-6-(2-(2-methyl-1-(2-(trifluoromethyl)pyridin-4-yl)azetidin-3-yl)acetyl)-6,7-dihydro-5H-pyrrolo[3,4-d]pyrimidine-2-carbonitrile] was tested. Which pEC50 (hM4 receptors) did it give?
Answer: ≥ 7.00

Question: What about the pEC50 (rM4 receptors) of the same compound?
Answer: 6.30 to 7.00

Question: And the pEC50 (human M4 receptor)?
Answer: ≥ 7.00

Question: What does the source list for `COc1nc(C#N)nc2c1C(C)N(C(=O)CC1CN(c3ccnc(C(F)(F)F)c3)C1C)C2` (single isomer, unassigned) [Compound I-38, 4-Methoxy-5-methyl-6-(2-(2-methyl-1-(2-(trifluoromethyl)pyridin-4-yl)azetidin-3-yl)acetyl)-6,7-dihydro-5H-pyrrolo[3,4-d]pyrimidine-2-carbonitrile]?
Answer: pEC50 (hM4 receptors): 6.30 to 7.00; pEC50 (rM4 receptors): 5.70 to 6.30; pEC50 (human M4 receptor): 5.70 to 6.30

Question: With `COc1nc(C#N)nc2c1C(C)N(C(=O)CC1CN(c3ccnc(C(F)(F)F)c3)C1C)C2` (single isomer, unassigned) [Compound I-39, 4-Methoxy-5-methyl-6-(2-(2-methyl-1-(2-(trifluoromethyl)pyridin-4-yl)azetidin-3-yl)acetyl)-6,7-dihydro-5H-pyrrolo[3,4-d]pyrimidine-2-carbonitrile] as the compound, how does the pEC50 (hM4 receptors) read?
Answer: 5.70 to 6.30

Question: What about the pEC50 (rM4 receptors) of the same compound?
Answer: 5.70 to 6.30

Question: What about the pEC50 (human M4 receptor) of the same compound?
Answer: ≤ 5.70

Question: With `COc1nc(C)nc2c1C(C)N(C(=O)CC1CN(c3ccnc(C(F)(F)F)c3)C1)C2` (single isomer, unassigned) [Compound I-53, 1-(4-Methoxy-2,5-dimethyl-5,7-dihydro-6H-pyrrolo[3,4-d]pyrimidin-6-yl)-2-(1-(2-(trifluoromethyl)pyridin-4-yl)azetidin-3-yl)ethan-1-one] as the compound, how does the pEC50 (hM4 receptors) read?
Answer: ≤ 5.70

Question: What about the pEC50 (rM4 receptors) of the same compound?
Answer: ≤ 5.70

Question: What about the pEC50 (human M4 receptor) of the same compound?
Answer: ≤ 5.70

Question: `COc1nc(C)nc2c1C(C)N(C(=O)CC1CN(c3cccc(C#N)c3)C1)C2` (single isomer, unassigned) [Compound I-54, 3-(3-(2-(4-Methoxy-2,5-dimethyl-5,7-dihydro-6H-pyrrolo[3,4-d]pyrimidin-6-yl)-2-oxoethyl)azetidin-1-yl)benzonitrile] was tested. Which pEC50 (hM4 receptors) did it give?
Answer: ≤ 5.70

Question: And the pEC50 (rM4 receptors)?
Answer: ≤ 5.70

Question: What about the pEC50 (human M4 receptor) of the same compound?
Answer: ≤ 5.70

Question: `COc1nc(C)nc2c1C(C)N(C(=O)CC1CN(c3cccc(C#N)c3)C1)C2` (single isomer, unassigned) [Compound I-55, 3-(3-(2-(4-Methoxy-2,5-dimethyl-5,7-dihydro-6H-pyrrolo[3,4-d]pyrimidin-6-yl)-2-oxoethyl)azetidin-1-yl)benzonitrile] was tested. Which pEC50 (hM4 receptors) did it give?
Answer: 5.70 to 6.30

Question: What about the pEC50 (rM4 receptors) of the same compound?
Answer: 5.70 to 6.30

Question: And the pEC50 (human M4 receptor)?
Answer: ≤ 5.70

Question: Which results are given for `COc1nc(C)nc2c1C(C)N(C(=O)CC1CN(c3ccc(C#N)cc3)C1)C2` (single isomer, unassigned) [Compound I-56, 4-(3-(2-(4-Methoxy-2,5-dimethyl-5,7-dihydro-6H-pyrrolo[3,4-d]pyrimidin-6-yl)-2-oxoethyl)azetidin-1-yl)benzonitrile]?
Answer: pEC50 (hM4 receptors): ≥ 7.00; pEC50 (rM4 receptors): 6.30 to 7.00; pEC50 (human M4 receptor): 6.30 to 7.00
